Assay results taken from patent US7115666B2, “Nitrone compounds, pharmaceutical compositions containing the same and methods for treating inflammation and neuropathic pain” (Renovis, Inc., priority 2002, dated 2006).
Entries after “also recorded” stand apart in the source; their conditions may differ.

What was measured:
[1] = test system: Taxol-induced neuropathic pain model in mice; experiment: Taxol-induced neuropathic pain model, mechanical allodynia (von Frey filament); format: in vivo
From the text: Taxol is a chemotherapeutic reagent for treatment of cancer patients. Cancer patients under Taxol chemotherapy can develop neuropathic pain, with a symptom of severe mechanical allodynia, so that a light touch (non-noxious stimulus in a normal condition) becomes painful. […] Recent studies have shown that Taxol is involved in TNF-alpha release in microglia cells. As one of the clinically relevant models, Taxol-induced neuropathic pain was developed in mice and rats. It is believed that small-diameter high threshold nociceptive C-fibers in the peripheral sensory nervous systems are largely, if not exclusively, affected in the Taxol-induced neuropathic pain models.
In this series of experiments, five-week old, male C57B1/6 mice were purchased from Charles River and housed at the Renovis animal facility in South San Francisco. Mice were trained for one week in an enclosure made of Plexiglas with dimensions of 2 in×2.5 in×3.5 in (W, H, and L) with a meshed metal support. The baseline of response to mechanical stimulus was measured using a von Frey Filament (0.6 g=3.84 mN). Normally, the baseline response is between 0 to 40%.
Taxol was dissolved (1 mg/ml) in 50% Cremophor EL and 50% alcohol, and freshly diluted with saline to the final concentration of 0.2 mg/ml in 10% Cremophor EL, 10% alcohol. Mice were administered Taxol at 1 mg/kg of body weight, via i.p. daily, while the animals of the control group received vehicle (10% Cremophor EL and 10% alcohol in saline).
Animals receiving this daily dose of Taxol will develop neuropathic pain. The mechanical allodynia was measured at day 7, 8, or 14 after Taxol administration.
A quantity of 200 mg of compound 14 (Example 14) was dissolved in 0.4 ml of 100% DMSO to yield a concentration of 500 mg/ml, and was kept at 4° C. until use. Methylcellulose was dissolved in deionized-distilled water to yield a concentration of 1%. The freshly prepared meythlcellulose was used to make a suspension of the compound, 10 mg of compound in 2.5% DMSO (V/V) and 1% methylcellulose. The suspension was sonicated for 6 min with a 5 second interval every 30 seconds before administration to animals.
A quantity of 50 mg/kg (body weight) compound or vehicle (2.5% DMSO and 1% methylcellulose), 100 μl/20 g (body weight) was given to animals via gavage feeding procedure in a randomized, blinded fashion. The animals were then placed in the enclosure for assay. Mechanical allodynia was measured with von Frey filament (0.6 g=[…]) at various times after administration.
Referring to FIG. 5, baseline in the group of animals was measured as 25+/−4% (n=24, ±SEM) before induction of neuropathic pain with Taxol (or sham treatment), where the response was measured with a von Frey filament (0.6 g=3.84 mN) as the percent of trials a withdrawal response is observed after probing with the filament. The higher the percentage, the greater the inferred pain.
Sixteen animals were treated with Taxol daily to induce neuropathic pain. Mechanical allodynia was assayed at day 8; average withdrawal response was measured as 81±5% (n=16, ±SEM). Sixteen animals were treated with matching vehicle to create sham animals. The Taxol and sham animals were then separated randomly into two groups of 8 animals each for drug vs. vehicle testing. Withdrawal responses to a von Frey filament probe were measured at 1, 6, 24, and 72 hours post-administration of drug or vehicle control, and averaged for each animal. […] Negative values reflect a reduction in inferred pain.
For mouse neuropathic pain studies, C57B1/6 strain, five-weeks old male mice were obtained from Charles River, San Diego, Calif. A total of 120 mice were used for the studies. 4 mice per cage were housed under standard conditions with 12-hour light and 12-hour dark cycles (in Renovis, Inc, South San Francisco facility). For rat neuropathic pain studies, male Sprague-Dawley rats, with body weights ranging from 180–200 grams, were obtained from Harlan. A total of 42 rats were used for this study. […]

[2] = test system: adjuvant-induced footpad edema in rats; experiment: Adjuvant assay (adjuvant-induced footpad edema); format: in vivo, rat
Experimental: This assay is a model for chronic inflammation. See, for example, B. M. Weichman, “Rat Adjuvant Arthritis: A Model of Chronic Inflammation,” Pharmacological Methods in the Control of Inflammation, 363–380 (1989) and references cited therein.
In this assay, Male Lewis rats weighing between 180–220 g were lightly anesthetized with an ip injection of 30 mg/kg of sodium pentobarbital (50 mg/ml). Desiccated Mycobacterium butyrium (Difco, 20 mg/ml) suspended in mineral oil was injected (50 μL) at both sides of the base of the tail under the skin. A line was tattooed on both rear paws at 5 mm above the angle of the ankle. The paw volumes, under the line, were measured by volume displacement using a plethysmometer (Ugo Basile) at the day of adjuvant injection (day 0) and on day 14. On day 14, animals with paw volumes equal to the mean of paw volumes ±SD were randomized into treatment groups. Rats which fell outside ±1 SD were not used in the experiment. One group received vehicle (1% methyl cellulose) by the po route and the other group received indomethacin (3 mg/kg suspended in 1% methyl cellulose). Dosing began on day 14, and continued until final assessment on day 21 post-adjuvant injection. […] This group has a slightly positive volume increase when paw volumes on day 21 are subtracted from day 0 values due to growth of the rat. […]

[3] = test system: collagen footpad edema in rats; experiment: Collagen arthritis assay; format: in vivo, rat; conditions: for paw volume differences after treatment: FIG. 3; for activity in rat collagen model: dose not stated (Assay Results summary)
Experimental: This assay is commonly used to screen and evaluate anti-inflammatory drug candidates. See, for example, Larsson et al., Arthritis & Rheumatism, 33:693–701, 1990 and references cited therein.
For these experiments, Female DA rats (7–8 weeks of age) were immunized with Type II collagen derived from bovine nasal septum as described in Cremer et al., J. of Immunology, 149:1045–1053, 1992. The collagen was dissolved and administered with incomplete Freund's adjuvant. Standard precautions were taken to avoid denaturing the collagen before its administration such as keeping the solution cold during preparation. Rats were immunized in the base of the tail on day 0. Dosing began on day 10 with rat paws weighed and volumes taken on day 21. The arthritis was evaluated by comparing paw weights and/or paw volumes at day 21. Compounds reducing paw weight or paw volumes by at least about 30% compared to the controls were also considered effective in this assay.

[4] = test system: chronic constriction injury (CCI) rat model of peripheral neuropathy; experiment: Cold allodynia assay in chronic constriction injury (CCI) rats; format: in vivo
Experimental: The purpose of the following studies was to determine whether test compounds had analgesic activity in a chronic constriction injury (CCI) rat model of peripheral neuropathy. Neuropathic rats were treated with PBN, and other test compounds or 2.5% DMSO in 1.0% MC as a vehicle and tested in a cold allodynia assay to evaluate nociceptive responses.
One week prior to the cold allodynia assay, CCI rats were prepared as follows. Male Sprague Dawley rats (158–224 g) had their right sciatic nerve loosely ligated under aseptic conditions. To observe the cold allodynia response, their paw withdrawal latency response was determined by placing rats in a cold water bath (2–4° C., 2.5 cm deep). […] Rats rendered neuropathic in the right limb display an exaggerated withdrawal response on the neuropathic side (right rear limb). For the cold allodynia assay, two pre-dose latency times to cold were recorded. The end point was an exaggerated removal of the paw from the water. […] The remaining rats were divided into treatment groups. Two separate latency times were obtained for each rat before the dose of each drug. In the first study shown in FIG. 1, rats were then dosed with Compound 1 (30 mg/kg, po) or PBN (100 mg/kg, po) as a suspension in Veh, or Veh alone (1 ml/kg, po). In the second study shown as FIG. 2, three different doses of Compound 1 (10, 30, 100 mg/kg, po) were administered to CCI rats. In both studies, latency to withdraw the ligated leg up above water level was recorded using an electronic timer. The tester was blinded to the animal's treatment group at the time of testing.
Maximum time of latency in any trial was 20 sec. Statistical significance was assessed for paired groups (pre-dose vs. post-dose) using a Wilcoxon test and between non-paired groups using a Kruskal-Wallis with a Dunn's test post-hoc. A probability value of p<0.05 was identified as statistically significant.

[5] = Taxol/mice, P.O., Single dosing, 50 Mg/Kg body weight
[6] = dose not stated (Assay Results summary)
[7] = FIG. 2, 30 mg/kg, p.o., 90 min post-dose
[8] = FIG. 2, 100 mg/kg, p.o., 90 min post-dose

## CC(C)Oc1ccc(CCC=[N+]([O-])C(C)(C)C)cc1 [Compound 6, N-tert-butyl-C-[2-(4-isopropoxyphenyl)ethyl]nitrone]
[1]; [5]
  Effective time Hour post dosing: None via p.o.

## COc1ccc(CCC=[N+]([O-])C(C)(C)C)cc1 [Compound 4, N-tert-butyl-C-[2-(4-methoxyphenyl)ethyl]nitrone]
[1]; [5]
  Effective time Hour post dosing: None via p.o.

## CC(C)(C)[N+]([O-])=CCCc1ccc(NS(=O)(=O)c2ccccc2)cc1 [Compound 10, N-tert-butyl-C-[2-(4-benzenesulfonamidophenyl)ethyl]nitrone]
other
  melting point: 160 °C

## COc1ccc(CC(C)C=[N+]([O-])C(C)(C)C)cc1 (stereo not drawn) [Compound 16, N-tert-butyl-C-[1–2-(4-methoxyphenyl)methylethyl]nitrone]
[1]; [5]
  Effective time Hour post dosing: None via p.o.

## CC(C)(C)[N+]([O-])=Cc1ccccc1 [PBN, N-tert-butyl phenyl nitrone, reference compound]
[2]; [6]
  activity in the adjuvant assay: completely inactive
[3]; 100 mg/kg
  paw volume differences after treatment: inactive
[3]
  activity in rat collagen model: completely inactive
[4]; FIG. 1, 100 mg/kg, p.o., 90 min post-dose
  activity in cold allodynia assay: completely inactive
[4]; [6]
  activity in the analgesic assay: completely inactive

## CCOc1ccc(CCC=[N+]([O-])C(C)(C)C)cc1 [Compound 7, N-tert-butyl-C-[2-(4-ethoxyphenyl)ethyl]nitrone]
other
  melting point: 54 to 57 °C
[1]; [5]
  Effective time Hour post dosing: None via p.o.

## CCC(C=[N+]([O-])C(C)(C)C)c1ccc(C(C)(C)C)cc1 (stereo not drawn) [Compound 15, N-tert-butyl-C-[1-(4-tert-butylphenyl)propyl]nitrone]
[1]; [5]
  Effective time Hour post dosing: None via p.o.

## CC(C)(C)c1cc(CCC=[N+]([O-])C(C)(C)C)cc(C(C)(C)C)c1O [Compound 21]
[1]; [5]
  Effective time Hour post dosing: None via p.o.

## CC(C)(C)[N+]([O-])=CCCc1ccccc1 [Compound 1, N-tert-butyl-C-(2-phenylethyl)nitrone]
[3]; dose not stated
  paw volume differences after treatment: unexpected activity
[3]; FIG. 4, lowering indicates relief from pain
  total gait scores as an index of pain: significant activity; also recorded: activity as an analgesic
[3]
  activity in rat collagen model: significantly active
[4]; 10 mg/kg, po
  activity in a model of painful peripheral neuropathy: significantly active
[4]; FIG. 1, 30 mg/kg, p.o., 90 min post-dose, Kruskal-Wallis, Dunn's test
  post-dose latency score vs. vehicle: signficant post-dose latency score over vehicle
[4]; FIG. 1, 30 mg/kg, p.o., 90 min post-dose, Wilcoxon test
  latency to cold stimulus, post-dose vs. pre-dose score: Significantly higher latency scores
[4]; FIG. 2, 10 mg/kg, p.o., 90 min post-dose
  latency time, post-dose vs. pre-dose score: significantly increased latency time
[4]; [7]
  latency time, post-dose vs. pre-dose score: significantly increased latency time
  post-dose latency score vs. vehicle: significant post-dose latency score over vehicle
[4]; [8]
  latency time, post-dose vs. pre-dose score: significantly increased latency time
  post-dose latency score vs. vehicle: significant post-dose latency score over vehicle
[1]; 50 mg/kg single dose via oral gavage
  time postdosing of analgesic effect: 1 h
[1]; 50 mg/kg single dose via oral gavage, von Frey filament 0.6 g, measured 1, 6, 24, up to 48 or 72 hours postdosing
  effect on mechanical allodynia (Taxol-induced pain): analgesic effect
[1]; [5]
  Effective time Hour post dosing: ~1 h
  extent of block of mechanical allodynia: partial

## [O-][N+](=CCCc1ccccc1)C1CCCCC1 [Compound 18, N-Cyclohexyl-C-(2-phenylethyl)nitrone]
other
  melting point: 97.2 °C

## COc1ccc2c(c1)c(CC(=O)O)c(C)n2C(=O)c1ccc(Cl)cc1 [Indomethacin]
[2]; 3 mg/kg, po, dosing day 14 to day 21 post-adjuvant
  paw volume as compared to vehicle controls: significantly reduced paw volume
